From PubChem BioAssay (NCI) come the findings set out here.

Among the test systems are CCRF-CEM leukemia; COLO 205 colon; NCI-H23 lung; NCI-H460 lung; OVCAR-5 ovarian; RXF 393 renal; SN12C renal; U251 CNS; DU-145 prostate; SR leukemia.
Assay in all cases: growth of human tumour cells (NCI), 48 h

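Briefly, cells in 96-well plates were exposed to five compound concentrations for 48 h, and endpoints were estimated by linear interpolation. GI50: concentration for 50% inhibition of growth. TGI: total growth inhibition.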 Where only a bound is given, the exact number is not on record here.

On to `Cc1ccc(C)c(NC(=O)C(=O)CC(=O)C2CCOC2=O)c1` (centres undefined), for which the TGI with CCRF-CEM leukemia, with COLO 205 colon, in the experiment on NCI-H23 lung, in the experiment on NCI-H460 lung, with OVCAR-5 ovarian and in the experiment with RXF 393 renal was greater than 100 µM each time. Also, the TGI in the experiment with SN12C renal and in the experiment on U251 CNS was greater than 100 µM each time.
In the case of `O=C1c2ccccc2C2(O)Nc3cc(O)ccc3C12O` (centres undefined), the TGI in the experiment on CCRF-CEM leukemia, in the experiment on COLO 205 colon, in the experiment with NCI-H23 lung, in the experiment with NCI-H460 lung, in the experiment on OVCAR-5 ovarian and with RXF 393 renal was greater than 100 µM throughout. Moreover, the TGI in the experiment with SN12C renal and in the experiment on U251 CNS was greater than 100 µM throughout.
With `COc1cccc([C@H]2CC(=O)c3cc4c(cc3N2)OCO4)c1`, the GI50 in the experiment on CCRF-CEM leukemia is 0.0586 µM; in the experiment with COLO 205 colon, 0.0367 µM; in the experiment with DU-145 prostate it was 0.067 µM; with OVCAR-5 ovarian it was 13.7 µM; with SN12C renal it was 0.161 µM; with U251 CNS it was 0.0491 µM. Moreover, the TGI with CCRF-CEM leukemia was greater than 100 µM; in the experiment on COLO 205 colon it was 1.22 µM; in the experiment with DU-145 prostate, 13.8 µM; in the experiment with RXF 393 renal it was 0.713 µM; with SN12C renal, greater than 100 µM; with U251 CNS, greater than 100 µM.
Turning to `COc1ccc(/C(=N/NC(N)=O)C2(O)C(=O)Nc3ccc([N+](=O)[O-])cc32)cc1` (centres undefined), the TGI in the experiment on CCRF-CEM leukemia is 32.3 µM; in the experiment with COLO 205 colon, 53.4 µM; in the experiment with NCI-H23 lung, 31.6 µM; with NCI-H460 lung it was 39.4 µM; in the experiment with OVCAR-5 ovarian it was 81.2 µM; in the experiment on SN12C renal, greater than 10 µM. The results for the TGI in the experiment on SR leukemia and in the experiment on U251 CNS were 47.1 µM and greater than 10 µM, respectively.
Consider `C=CCC1OC(C)(C)Oc2ccc(OCOCCOC)cc21` (centres undefined), for which the TGI in the experiment on NCI-H23 lung, in the experiment with NCI-H460 lung, with OVCAR-5 ovarian, in the experiment with RXF 393 renal, in the experiment with SN12C renal and in the experiment on U251 CNS was greater than 100 µM in each case.
For `N#Cc1cccc(N2C(=O)c3c(c(-c4ccccc4)c(-c4ccc(Sc5ccc(-c6c(-c7ccccc7)c7c(c(-c8ccccc8)c6-c6ccccc6)C(=O)N(c6cccc(C#N)c6)C7=O)cc5)cc4)c(-c4ccccc4)c3-c3ccccc3)C2=O)c1`, the TGI in the experiment on CCRF-CEM leukemia was greater than 100 µM; with COLO 205 colon, greater than 100 µM; in the experiment on NCI-H23 lung, greater than 100 µM; in the experiment with NCI-H460 lung, greater than 100 µM; in the experiment with OVCAR-5 ovarian, greater than 100 µM; in the experiment on RXF 393 renal it was 59.2 µM. Moreover, the TGI is greater than 100 µM with SN12C renal and 54.2 µM in the experiment with U251 CNS.
For the compound `C=C(CNC(=O)Nc1ccc(-c2ccccc2)cc1)c1ccc(C(=O)Nc2ccccc2N)cc1`, the GI50 with CCRF-CEM leukemia is 7.32 µM; in the experiment on COLO 205 colon it was greater than 100 µM; with DU-145 prostate, 27.7 µM; with NCI-H23 lung, 85.3 µM; in the experiment on NCI-H460 lung it was greater than 100 µM; in the experiment with OVCAR-5 ovarian, greater than 100 µM. For the same compound, the results for the GI50 in the experiment on RXF 393 renal, in the experiment on SN12C renal and with U251 CNS were 23.7 µM, greater than 100 µM and 47.9 µM, respectively. Besides, the TGI in the experiment on CCRF-CEM leukemia, in the experiment with COLO 205 colon, in the experiment on DU-145 prostate, with NCI-H23 lung, in the experiment on NCI-H460 lung and in the experiment with OVCAR-5 ovarian was greater than 100 µM in each case. Moreover, the TGI in the experiment with RXF 393 renal was 59 µM; in the experiment with SN12C renal, greater than 100 µM; with U251 CNS it was greater than 100 µM.
For `COc1ccc(S(=O)(=O)NC(C)C(=O)O)cc1` (centres undefined), the TGI in the experiment with CCRF-CEM leukemia, with COLO 205 colon, with NCI-H23 lung, in the experiment with NCI-H460 lung, in the experiment on OVCAR-5 ovarian and with RXF 393 renal was greater than 100 µM each time. Also, the TGI in the experiment on SN12C renal and with U251 CNS was greater than 100 µM in each case.
On to `COc1ccc2c(c1)C(=O)c1c-2n(CCCN)c(=O)c2ccccc12`, for which the GI50 in the experiment with CCRF-CEM leukemia was less than 0.0129 µM; with COLO 205 colon it was less than 0.0318 µM; with DU-145 prostate, 0.0179 µM; with NCI-H23 lung, 0.0497 µM; in the experiment on NCI-H460 lung it was less than 0.01 µM; in the experiment with OVCAR-5 ovarian, 0.142 µM. In addition, the GI50 was 0.137 µM in the experiment with RXF 393 renal, less than 0.016 µM in the experiment on SN12C renal and less than 0.0173 µM in the experiment with U251 CNS. Further, the TGI in the experiment with CCRF-CEM leukemia was less than 0.0356 µM; with COLO 205 colon it was 0.807 µM; in the experiment with DU-145 prostate, 0.293 µM; with NCI-H23 lung, 1.02 µM; in the experiment on NCI-H460 lung, 0.0402 µM; in the experiment on OVCAR-5 ovarian, 1.18 µM. The TGI is 0.91 µM with RXF 393 renal, 0.118 µM in the experiment with SN12C renal and 0.271 µM in the experiment with U251 CNS.
As for `O=C(c1ccc2ccccc2c1O)N1CCCCC1`, the TGI is greater than 100 µM in the experiment with CCRF-CEM leukemia; greater than 100 µM with COLO 205 colon; greater than 100 µM in the experiment on DU-145 prostate; 90 µM in the experiment with NCI-H23 lung; greater than 100 µM in the experiment on NCI-H460 lung; greater than 100 µM in the experiment on RXF 393 renal. In the experiment on U251 CNS, this compound yielded a TGI greater than 100 µM.
Regarding `O=C(O)CN(c1ccccc1)S(=O)(=O)c1ccc(NC(=O)c2ccccc2)cc1`, the TGI with CCRF-CEM leukemia, in the experiment on COLO 205 colon, with NCI-H23 lung, with NCI-H460 lung, with OVCAR-5 ovarian and in the experiment on RXF 393 renal was greater than 100 µM in each case. The TGI in the experiment on SN12C renal and in the experiment with U251 CNS was greater than 100 µM throughout.
As for `N#C/C(=C\c1ccccc1O)C(N)=O`, the TGI in the experiment with CCRF-CEM leukemia is 83.1 µM; with COLO 205 colon, greater than 100 µM; with NCI-H23 lung, greater than 100 µM; in the experiment with NCI-H460 lung, greater than 100 µM; with OVCAR-5 ovarian, greater than 100 µM; in the experiment on RXF 393 renal, 87.5 µM. The TGI in the experiment on SN12C renal and with U251 CNS was greater than 100 µM each time.
Turning to `NS(=O)(=O)c1ccc(NC(=O)c2ccc(NC3=C(Cl)C(=O)N(Cc4ccccc4)C3=O)cc2)cc1`, the GI50 is 15.1 µM with COLO 205 colon; 17 µM with DU-145 prostate; 3.42 µM in the experiment with NCI-H23 lung; 5.07 µM with NCI-H460 lung; 15.5 µM in the experiment on OVCAR-5 ovarian; 5.37 µM with U251 CNS. Moreover, the TGI is greater than 100 µM with COLO 205 colon; 30.6 µM in the experiment with DU-145 prostate; 14.3 µM with NCI-H23 lung; greater than 100 µM in the experiment on NCI-H460 lung; 33.1 µM with OVCAR-5 ovarian; 24.7 µM with U251 CNS.
